From US4382925A
Values after ≈ are worked out from the molar mass of the structure shown. “Also recorded” adds a separate entry of the source. Read-outs that look alike come from different tables or passages of the source.

What was measured:
[1] = system: herpes simplex-1 (strain KOS) virus; details: separate experiments, De Clercq et al., PNAS 1979; cited from earlier work
[2] = system: Herpes simplex-1 strain F; test: Inhibition of cytopathic effect of herpes simplex-1 virus strain F in PRK cell cultures (Test 1); assay type: cell-based; details: PRK cells, average of three experiments, read-out: ID50, Herpes simplex-1 strain F (PRK)
[3] = system: herpes simplex-1 (strain KOS) virus; details: dose 10 μl/ml [sic]
[4] = system: Herpes simplex-1 strain KOS; test: Inhibition of cytopathic effect of herpes simplex-1 virus strain KOS in PRK and HSF cell cultures (Test 1); assay type: cell-based; details: average of three experiments
[5] = system: (2-^14 C)UdR incorporation into cell DNA, PRK cell cultures; details: separate experiments reported by De Clercq et al., PNAS 76, 2947-2951 (1979); cited from earlier work
[6] = system: Herpes simplex-1 strain McIntyre; test: Inhibition of cytopathic effect of herpes simplex-1 virus strain McIntyre in PRK cell cultures (Test 1); assay type: cell-based; details: PRK cells, average of three experiments, read-out: ID50, Herpes simplex-1 strain McIntyre (PRK)
vaccinia virus = test: microbe, parasite or virus in culture; assay type: cell-based; details: Orthopoxvirus vaccinia
cell culture [7] = details: prior art literature; cited from earlier work
[8] = system: (Methyl-^3 H)TdR incorporation into cell DNA, PRK cell cultures; details: separate experiments reported by De Clercq et al., PNAS 76, 2947-2951 (1979); cited from earlier work
herpes simplex virus [9] = test: Antiviral activity against herpes simplex virus in cell culture, overall statements; assay type: cell-based; details: in words
cell culture [10] = test: Toxicity in cell culture, overall statements; assay type: cell-based; details: in words
Procedure: (§1) The cells were exposed to 0.12 μCi:0.01 nmol (methyl-^3 H)TdR (per 10^5 cells) or 14 μCi/250 nmol (2-^14 C) UdR (per 10^5 cells) for 16 hours in the presence of varying concentrations of the compounds (ranging from 1 to 200 μg/ml). Incorporation of the radiolabelled precursor was then measured as described and the ID50 was determined. ID50 corresponds to the inhibitory dose-50, that is the concentration of compound required to inhibit incorporation of either (methyl-^3 H)TdR or (2-^14 C)UdR by 50%.

[11] = Antimetabolic activity in PRK cell cultures: (2-^14 C)UdR incorporation into cell DNA (Test 3); assay type: cell-based; details: rabbit, PRK cells, read-out: ID50, (2-^14 C)UdR incorporation into cell DNA
Procedure: (§2) To this end, the incorporation of certain radiolabelled DNA precursors into DNA of the cells, and the effect of 5-(2-halogenovinyl)-2'-deoxycytidines and related compounds thereon, was tested. The technique has been described by De Clercq et al in Biochemical Pharmacology, 26, 794-797 (1977) and by De Clercq et al in Molecular Pharmacology, 14, 422-430, (1978).
(§3) The DNA precursors as used were (methyl-^3 H), (2'-deoxythymidine ) (TdR), and (2-^14 C) (2'-deoxyuridine) (UdR).
as §1

[12] = Antimetabolic activity in PRK cell cultures: (methyl-^3 H)TdR incorporation into cell DNA (Test 3); assay type: cell-based; details: rabbit, PRK cells, read-out: ID50, (Methyl-^3 H)TdR incorporation into cell DNA
Procedure: as §2, §3, §1

herpes simplex virus [13] = details: De Clercq et al., PNAS 76, 2947-2951 (1979); cited from earlier work
[14] = system: herpes simplex-1 (strain KOS) virus; test: Antiviral index in PRK cell cultures (Test 4); assay type: cell-based, herpes simplex-1 virus; details: ratio of ID50 for (2-^14 C)UdR incorporation to ID50 for herpes simplex-1 (strain KOS), PRK cells
Procedure: The antiviral index was determined as the ratio of ID50 for (2-^14 C)UdR incorporation into cell DNA to ID50 for herpes simplex-1 (strain KOS) virus replication (compare Tables 1 and 3).

[15] = HSF cells, read-out: ID50, Herpes simplex-1 strain KOS (HSF)
[16] = PRK cells, read-out: ID50, Herpes simplex-1 strain KOS (PRK)
[17] = HSF, read-out: ID50, Vaccinia (HSF)
[18] = PRK, read-out: ID50, Vaccinia (PRK)

Row | SMILES | Antiviral index (numbers in parentheses) [1] | IC50 [2] [µg/mL] | Reduction in virus yield as compared to control (untreated virus-infected) cell cultures ([3]; 1 day after infection) [log10 PFU/ml] | Reduction in virus yield as compared to control (untreated virus-infected) cell cultures ([3]; 2 days after infection) [log10 PFU/ml] | Reduction in virus yield as compared to control (untreated virus-infected) cell cultures ([3]; 3 days after infection) [log10 PFU/ml] | IC50 [4, 15] [µg/mL] | IC50 [4, 16] [µg/mL] | ID50, (2-^14 C)UdR incorporation into cell DNA (data in parentheses) [5] [µg/mL] | IC50 [6] [µg/mL] | IC50 (vaccinia virus; [17]) [µg/mL] | IC50 (vaccinia virus; [18]) [µg/mL] | toxicity in cell culture, reported (cell culture [7]) | ID50, (Methyl-^3 H)TdR incorporation into cell DNA (data in parentheses) [8] [µg/mL] | specific antiviral activity against herpes simplex virus (herpes simplex virus [9]) | toxicity in cell culture (cell culture [10]) | IC50 at 16 h [11] [µg/mL] | IC50 at 16 h [12] [µg/mL] | antiviral activity against herpes simplex virus, reported (herpes simplex virus [13]) | Antiviral index [14]
1 | O=c1[nH]c(=O)n([C@H]2C[C@H](O)[C@@H](CO)O2)cc1I [5-iodo-2'-deoxyuridine] | 12 | 0.2 (≈ 0.565 µM) | 4.0 | 2.6 | 1.9 | 0.2 (≈ 0.565 µM) | 0.1 (≈ 0.282 µM) | 1.2 (≈ 3.39 µM) | 0.15 (≈ 0.424 µM) | 0.2 (≈ 0.565 µM) | 0.02 (≈ 0.0565 µM) | cannot be neglected | 2.5 (≈ 7.06 µM) | – | – | – | – | – | –
2 | Nc1nc(=O)n([C@H]2C[C@H](O)[C@@H](CO)O2)cc1/C=C/Br [E-5-(2-bromovinyl)-2'-deoxycytidine] | – | 0.1 (≈ 0.301 µM) | 3.8 | 2.9 | 2.2 | 0.07 (≈ 0.211 µM) | 0.07 (≈ 0.211 µM) | – | 0.07 (≈ 0.211 µM) | 2 (≈ 6.02 µM) | 10 (≈ 30.1 µM) | – | – | excellent and highly specific antiviral activity against herpes simplex virus; also recorded: very specific towards herpes simplex virus | apparently nil; also recorded: apparent lack of toxicity in cell culture | > 200 | > 200 | – | –
3 | O=c1[nH]c(=O)n([C@H]2C[C@H](O)[C@@H](CO)O2)cc1/C=C/Br [E-5-(2-bromovinyl)-2'-deoxyuridine] | 10000 | 0.01 (≈ 0.03 µM) | – | – | – | 0.01 (≈ 0.03 µM) | 0.007 (≈ 0.021 µM) | 70 (≈ 210 µM) | 0.01 (≈ 0.03 µM) | 0.7 (≈ 2.1 µM) | 7 (≈ 21 µM) | low toxicity in cell culture | 70 (≈ 210 µM) | – | – | 100 (≈ 300 µM) | 100 (≈ 300 µM) | specific antiviral activity against herpes simplex virus | 14300
4 | Nc1nc(=O)n([C@H]2C[C@H](O)[C@@H](CO)O2)cc1/C=C/I [E-5-(2-iodovinyl)-2'-deoxycytidine] | – | 0.2 (≈ 0.527 µM) | 4.3 | 2.8 | 2.0 | 0.07 (≈ 0.185 µM) | 0.1 (≈ 0.264 µM) | – | 0.07 (≈ 0.185 µM) | 7 (≈ 18.5 µM) | 10 (≈ 26.4 µM) | – | – | excellent and highly specific antiviral activity against herpes simplex virus; also recorded: very specific towards herpes simplex virus | apparently nil; also recorded: apparent lack of toxicity in cell culture | > 200 | > 200 | – | –
5 | O=c1[nH]c(=O)n([C@H]2C[C@H](O)[C@@H](CO)O2)cc1/C=C/I [E-5-(2-iodovinyl)-2'-deoxyuridine] | 7000 | 0.01 (≈ 0.0263 µM) | – | – | – | 0.02 (≈ 0.0526 µM) | 0.01 (≈ 0.0263 µM) | 70 (≈ 184 µM) | 0.01 (≈ 0.0263 µM) | 1 (≈ 2.63 µM) | 10 (≈ 26.3 µM) | low toxicity in cell culture | 70 (≈ 184 µM) | – | – | 150 (≈ 395 µM) | 80 (≈ 210 µM) | specific antiviral activity against herpes simplex virus | 15000
